According to ChEMBL document CHEMBL1201862, “PubChem BioAssay data set” (2004):
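The compound was tested at five concentrations on cells cultured in 96-well plates, with a 48-hour exposure period. Here, GI50 denotes the concentration required for 50% inhibition of growth.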 Active and inactive are the calls of the source. Cut-off read from the data, not from the text of the source: active = GI50 up to about 1.1 µM and inactive = higher.

Columns and labels:
Test in all cases: NCI-60 cell line screen, 48 h
OVCAR-8 = tested on: OVCAR-8
RPMI-8226 = tested on: RPMI-8226
SF-539 = tested on: SF-539
SNB-78 = tested on: SNB-78
KM12 = tested on: KM12
U-251 = tested on: U-251
SF-268 = tested on: SF-268
UACC-257 = tested on: UACC-257
RXF 631 = tested on: RXF 631
A498 = tested on: A498
SK-MEL-5 = tested on: SK-MEL-5
HOP-62 = tested on: HOP-62
NCI-H460 = tested on: NCI-H460
NCI-H226 = tested on: NCI-H226
SF-295 = tested on: SF-295
NCI-H522 = tested on: NCI-H522
HCC 2998 = tested on: HCC 2998
UO-31 = tested on: UO-31
IGROV-1 = tested on: IGROV-1
KM-20L2 = tested on: KM-20L2
Malme-3M = tested on: Malme-3M
DMS-114 = tested on: DMS-114
786-0 = tested on: 786-0
RXF 393 = tested on: RXF 393
HL-60 = tested on: HL-60
HT-29 = tested on: HT-29
SW-620 = tested on: SW-620
M19-MEL = tested on: M19-MEL
EKVX = tested on: EKVX
DMS-273 = tested on: DMS-273
A549 = tested on: A549
K562 = tested on: K562
CCRF-CEM = tested on: CCRF-CEM
ACHN = tested on: ACHN
OVCAR-4 = tested on: OVCAR-4
HCT-116 = tested on: HCT-116
SK-MEL-2 = tested on: SK-MEL-2
MOLT-4 = tested on: MOLT-4
OVCAR-3 = tested on: OVCAR-3
HOP-18 = tested on: HOP-18
COLO 205 = tested on: COLO 205
TK-10 = tested on: TK-10
M14 = tested on: M14
CAKI-1 = tested on: CAKI-1
SN12C = tested on: SN12C
XF498 = tested on: XF498
SNB-19 = tested on: SNB-19
SNB-75 = tested on: SNB-75
OVCAR-5 = tested on: OVCAR-5
NCI-H23 = tested on: NCI-H23
HCT-15 = tested on: HCT-15
DLD-1 = tested on: DLD-1
UACC-62 = tested on: UACC-62
SK-OV-3 = tested on: SK-OV-3
LXFL 529 = tested on: LXFL 529
HOP-92 = tested on: HOP-92
SK-MEL-28 = tested on: SK-MEL-28
LOX IMVI = tested on: LOX IMVI

COc1cc(-c2ccccc2)c(OC)cc1CCl
GI50 (OVCAR-8): > 100 µM (inactive) | GI50 (RPMI-8226): > 100 µM (inactive) | GI50 (SF-539): > 100 µM (inactive) | GI50 (SNB-78): > 100 µM (inactive) | GI50 (KM12): > 100 µM (inactive) | GI50 (U-251): > 100 µM (inactive) | GI50 (SF-268): > 100 µM (inactive) | GI50 (UACC-257): > 100 µM (inactive) | GI50 (RXF 631): > 100 µM (inactive) | GI50 (A498): > 100 µM (inactive) | GI50 (SK-MEL-5): > 100 µM (inactive) | GI50 (HOP-62): > 100 µM (inactive) | GI50 (NCI-H460): > 100 µM (inactive) | GI50 (NCI-H226): > 100 µM (inactive) | GI50 (SF-295): > 100 µM (inactive) | GI50 (NCI-H522): > 100 µM (inactive) | GI50 (HCC 2998): > 100 µM (inactive) | GI50 (UO-31): > 100 µM (inactive) | GI50 (IGROV-1): > 100 µM (inactive) | GI50 (KM-20L2): > 100 µM (inactive) | GI50 (Malme-3M): > 100 µM (inactive) | GI50 (DMS-114): > 100 µM (inactive) | GI50 (786-0): > 100 µM (inactive) | GI50 (RXF 393): > 100 µM (inactive) | GI50 (HL-60): > 100 µM (inactive) | GI50 (HT-29): > 100 µM (inactive) | GI50 (SW-620): > 100 µM (inactive) | GI50 (M19-MEL): > 100 µM (inactive) | GI50 (EKVX): > 100 µM (inactive) | GI50 (DMS-273): > 100 µM (inactive) | GI50 (A549): > 100 µM (inactive) | GI50 (K562): > 100 µM (inactive) | GI50 (CCRF-CEM): > 100 µM (inactive) | GI50 (ACHN): > 100 µM (inactive) | GI50 (OVCAR-4): > 100 µM (inactive) | GI50 (HCT-116): > 100 µM (inactive) | GI50 (SK-MEL-2): > 100 µM (inactive) | GI50 (MOLT-4): > 100 µM (inactive) | GI50 (OVCAR-3): > 100 µM (inactive) | GI50 (HOP-18): > 100 µM (inactive) | GI50 (COLO 205): > 100 µM (inactive) | GI50 (TK-10): > 100 µM (inactive) | GI50 (M14): > 100 µM (inactive) | GI50 (CAKI-1): > 100 µM (inactive) | GI50 (SN12C): > 100 µM (inactive) | GI50 (XF498): > 100 µM (inactive) | GI50 (SNB-19): > 100 µM (inactive) | GI50 (SNB-75): > 100 µM (inactive) | GI50 (OVCAR-5): > 100 µM (inactive) | GI50 (NCI-H23): > 100 µM (inactive) | GI50 (HCT-15): > 100 µM | GI50 (DLD-1): > 100 µM (inactive) | GI50 (UACC-62): > 100 µM (inactive) | GI50 (SK-OV-3): > 100 µM (inactive)

N#CC(C(=O)/C(=N/NC(=O)c1ccccc1O)C(C#N)c1ccc(Br)cc1)c1ccc(Br)cc1 (centres undefined)
GI50 (OVCAR-8): 6.43 µM (inactive) | GI50 (SF-539): 10.6 µM (inactive) | GI50 (SNB-78): 4.75 µM (inactive) | GI50 (LXFL 529): 3.32 µM (inactive) | GI50 (KM12): 12.9 µM (inactive) | GI50 (U-251): 11.6 µM (inactive) | GI50 (SF-268): > 10 µM (inactive) | GI50 (UACC-257): 15.1 µM (inactive) | GI50 (HOP-92): 16.7 µM (inactive) | GI50 (RXF 631): 14.1 µM (inactive) | GI50 (A498): 13.7 µM (inactive) | GI50 (SK-MEL-5): 9.55 µM (inactive) | GI50 (HOP-62): 14.4 µM (inactive) | GI50 (NCI-H460): 14.2 µM (inactive) | GI50 (NCI-H226): 5.52 µM (inactive) | GI50 (SF-295): 14.5 µM (inactive) | GI50 (NCI-H522): 11.4 µM (inactive) | GI50 (HCC 2998): 12.1 µM (inactive) | GI50 (UO-31): 13.3 µM (inactive) | GI50 (IGROV-1): 15.7 µM (inactive) | GI50 (KM-20L2): 15.4 µM (inactive) | GI50 (Malme-3M): 11.9 µM (inactive) | GI50 (DMS-114): 15.7 µM (inactive) | GI50 (786-0): 12.7 µM (inactive) | GI50 (RXF 393): 4.71 µM (inactive) | GI50 (HT-29): 13.3 µM (inactive) | GI50 (SW-620): 4.02 µM (inactive) | GI50 (M19-MEL): 11.7 µM (inactive) | GI50 (EKVX): 15.6 µM (inactive) | GI50 (DMS-273): 13.4 µM (inactive) | GI50 (A549): 14.2 µM (inactive) | GI50 (K562): 5.74 µM (inactive) | GI50 (CCRF-CEM): 2.23 µM (inactive) | GI50 (ACHN): 13.7 µM (inactive) | GI50 (OVCAR-4): 15.6 µM (inactive) | GI50 (HCT-116): 12.9 µM (inactive) | GI50 (SK-MEL-28): 13.8 µM (inactive) | GI50 (SK-MEL-2): 12.2 µM (inactive) | GI50 (LOX IMVI): 7.82 µM (inactive) | GI50 (MOLT-4): 3.93 µM (inactive) | GI50 (OVCAR-3): 13.5 µM (inactive) | GI50 (HOP-18): 8.41 µM (inactive) | GI50 (COLO 205): 16.5 µM (inactive) | GI50 (TK-10): 24.4 µM (inactive) | GI50 (M14): 14.3 µM (inactive) | GI50 (SN12C): 9.12 µM (inactive) | GI50 (XF498): 13.7 µM (inactive) | GI50 (SNB-19): 11.6 µM (inactive) | GI50 (SNB-75): 2.99 µM (inactive) | GI50 (OVCAR-5): 15.7 µM (inactive) | GI50 (NCI-H23): 4.74 µM (inactive) | GI50 (HCT-15): 9.08 µM | GI50 (DLD-1): 4.79 µM (inactive) | GI50 (UACC-62): 6.71 µM (inactive) | GI50 (SK-OV-3): 36.8 µM (inactive)
